What was measured:
[1] = test system: 697 (B-Lymphoblastic Leukemia); experiment: Bliss excess, mean over the matrix (fraction); higher = more synergy
Outline: (§1)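 Cell lines in DMEM/F12 or RPMI with 10% FBS were plated in 1536-well plates, held 24 hours at 37°C, 5% CO2, then given two-drug dose matrices for 72 hours (DMSO typically 0.2%). Viability was read by CellTiter-Glo 2.0 luminescence and scaled as inhibition from 0 (vehicle wells) to 1 (blank wells). Combination Emax is the second-highest inhibition in the matrix; Bliss excess is observed combination effect minus expected EA + EB − EA·EB, EA and EB being single-agent effects.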

[2] = test system: CFPAC-1 (Pancreatic Carcinoma); experiment: as above
Outline: as §1

[3] = test system: KM-H2 (Hodgkin's Lymphoma); experiment: as above
Outline: as §1

[4] = test system: MDA-MB-231 (Breast Carcinoma); experiment: as above
Outline: as §1

[5] = test system: CAL-78 (Chondrosarcoma); experiment: as above
Outline: as §1

[6] = test system: IHH-4 (Thyroid Gland Carcinoma); experiment: as above
Outline: as §1

[7] = test system: G-292-Clone-A141B1 (Osteosarcoma); experiment: as above
Outline: as §1

[8] = test system: ES7 (Ewing's Sarcoma); experiment: as above
Outline: as §1

[9] = test system: J82 (Bladder Carcinoma); experiment: as above
Outline: as §1

[10] = test system: RH-1 (Ewing's Sarcoma); experiment: as above
Outline: as §1

[11] = test system: MDA-MB-157 (Breast Carcinoma); experiment: as above
Outline: as §1

[12] = test system: DSH1 (Bladder Carcinoma); experiment: combination Emax (second highest fraction inhibited in the dose matrix, 72 h); higher = more inhibition; extreme values may be limits of the assay
Outline: as §1

[13] = test system: KARPAS-1106P (B-Cell Non-Hodgkin's Lymphoma); experiment: as above
Outline: as §1

[14] = test system: LU-99A (Non-Small Cell Lung Carcinoma); experiment: as above
Outline: as §1

[15] = test system: HPAC (Pancreatic Carcinoma); experiment: as above
Outline: as §1

[16] = test system: SUIT-2 (Pancreatic Carcinoma); experiment: as above
Outline: as §1

[17] = test system: SW1783 (Low Grade Glioma); experiment: as above
Outline: as §1

[18] = test system: DB (B-Cell Non-Hodgkin's Lymphoma); experiment: as above
Outline: as §1

[19] = test system: NCI-H1299 (Non-Small Cell Lung Carcinoma); experiment: as above
Outline: as §1

[20] = test system: HT-29 (Colorectal Carcinoma); experiment: as above
Outline: as §1
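Throughout, for Bliss excess, mean over the matrix: after 72 h of two-drug dosing.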

SMILES | Bliss excess [1] | Bliss excess [2] | Bliss excess [3] | Bliss excess [4] | Bliss excess [5] | Bliss excess [6] | Bliss excess [7] | Bliss excess [8] | Bliss excess [9] | Bliss excess [10] | Bliss excess [11] | combination Emax [12] | combination Emax [13] | combination Emax [14] | combination Emax [15] | combination Emax [16] | combination Emax [17] | combination Emax [18] | combination Emax [19] | combination Emax [20]
COc1nnc2ccc(N3CCC(c4ccc(OCCN5CCN(C)C(=O)[C@H]5C)cc4)CC3)nn12 [AZD5153] + C[C@@H]1COCCN1C2=NC(=NC(=C2)C3(CC3)[S@](=N)(=O)C)C4=C5C=CNC5=NC=C4 [AZD6738] (first compound max 1 µM, 7x7, partner max 10 µM) | -0.0106 | 0.015 | -0.008 | -0.0477 | 0.0093 | -0.0118 | 0.0166 | -0.0245 | 0.104 | 0.0071 | -0.0138 | 0.808 | 0.944 | 0.755 | 0.71 | 0.671 | 0.515 | 0.811 | 0.794 | 0.863
C=CCn1c(=O)c2cnc(Nc3ccc(N4CCN(C)CC4)cc3)nc2n1-c1cccc(C(C)(C)O)n1 [AZD1775] + O=C(c1cc(Cc2n[nH]c(=O)c3ccccc23)ccc1F)N1CCN(C(=O)C2CC2)CC1 [Olaparib] (first compound max 1 µM, partner max 10 µM) | 0.0782 | -0.0585 | 0.0084 | -0.0267 | -0.0833 | 0.0194 | 0.0161 | -0.0453 | -0.025 | 0.044 | -0.0379 | 0.369 | 0.872 | 0.546 | 0.649 | 0.607 | 0.342 | 0.912 | 0.792 | 0.818
CC1(C)CCC(CN2CCN(c3ccc(C(=O)NS(=O)(=O)c4ccc(NCC5CCOCC5)c([N+](=O)[O-])c4)c(Oc4cnc5[nH]ccc5c4)c3)CC2)=C(c2ccc(Cl)cc2)C1 [Venetoclax] + CCN(CCO)CCCOc1ccc2c(Nc3cc(CC(=O)Nc4cccc(F)c4)[nH]n3)ncnc2c1 [AZD2811] (first compound max 1 µM, 7x7, partner max 1 µM) | 0.0078 | -0.024 | 0.0106 | -0.013 | 0.0143 | -0.0288 | -0.0413 | 0.0074 | -0.014 | -0.0548 | 0.0119 | 0.271 | 0.46 | 0.299 | 0.361 | 0.187 | 0.333 | 0.965 | 0.19 | 0.214
NC1(C(=O)N[C@@H](CCO)c2ccc(Cl)cc2)CCN(c2ncnc3[nH]ccc23)CC1 [Capivasertib] + CC(C)n1c(=O)n(C)c2cnc3cc(F)c(-c4ccc(OCCCN5CCCCC5)nc4)cc3c21 [AZD1390] (first compound max 10 µM, 7x7, partner max 0.3 µM) | -0.0197 | -0.0828 | -0.0554 | -0.102 | -0.0382 | -0.0074 | -0.0453 | -0.0471 | -0.0659 | -0.0292 | -0.0306 | 0.615 | 0.392 | 0.407 | 0.252 | 0.139 | 0.454 | 0.386 | 0.254 | 0.345
C[C@@H](c1ccc2nccn2c1)n1nnc2ncc(-c3cnn(C)c3)nc21 [Savolitinib] + CC1(C)CCC(CN2CCN(c3ccc(C(=O)NS(=O)(=O)c4ccc(NCC5CCOCC5)c([N+](=O)[O-])c4)c(Oc4cnc5[nH]ccc5c4)c3)CC2)=C(c2ccc(Cl)cc2)C1 [Venetoclax] (first compound max 1 µM, 7x7, partner max 1 µM) | -0.114 | -0.0514 | 0 | -0.0599 | -0.0872 | -0.0399 | -0.0442 | -0.0354 | -0.0895 | -0.0321 | -0.0411 | 0.286 | 0.2 | 0.0525 | 0.143 | 0.168 | 0.156 | 0.741 | 0.14 | 0.149
Cn1cnc2c(F)c(Nc3ccc(Br)cc3Cl)c(C(=O)NOCCO)cc21 [Selumetinib] + CCN(CCO)CCCOc1ccc2c(Nc3cc(CC(=O)Nc4cccc(F)c4)[nH]n3)ncnc2c1 [AZD2811] (first compound max 10 µM, 7x7, partner max 1 µM) | 0.0059 | -0.0529 | -0.0193 | 0.0107 | -0.0522 | -0.0209 | -0.0367 | -0.0524 | -0.0611 | -0.0239 | -0.0064 | 0.383 | 0.297 | 0.453 | 0.906 | 0.349 | 0.0665 | 0.411 | 0.363 | 0.715

From the supplement of paper PMC11061612
